Measurements from PubChem BioAssay AID1963985 (Molecular Pharmacology Branch, DTP, NCI, 2024).
Values belong to the compound of their own block, whether it stands above or below them.

Test system: 252836-082-R-J2-PDC tumor spheroids, viability
Assay: Anticancer human tumor 252836-082-R-J2-PDC patient-derived head and neck squamous cell carcinoma cell line growth inhibition [PI3K]
Details: spheroids with HUVEC and MSC; for viability, T/C: stronger effect = lower value
How it was run: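 We assembled tumor spheroids that included a stromal compartment of HUVEC and MSCs, then exposed them to targeted agents alone and together with PI3K pathway inhibitors. Concentration series descended by half-log from clinically achievable Cmax levels. Viability served as the endpoint.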

[1] = curve of first compound, second compound 0.0316 µM
[2] = curve of first compound, second compound 0.1 µM
[3] = curve of first compound, second compound 0.316 µM
[4] = curve of first compound, second compound 1 µM
[5] = curve of first compound, second compound 3.16 µM
[6] = curve of first compound, second compound 10 µM
[7] = second compound 0.0316 µM, first compound 0.0316 µM
[8] = second compound 0.0316 µM, first compound 0.1 µM
[9] = second compound 0.0316 µM, first compound 0.316 µM
[10] = second compound 0.0316 µM, first compound 1 µM
[11] = second compound 0.0316 µM, first compound 3.16 µM
[12] = second compound 0.0316 µM, first compound 10 µM
[13] = second compound 0.1 µM, first compound 0.0316 µM
[14] = second compound 0.1 µM, first compound 0.1 µM
[15] = second compound 0.1 µM, first compound 0.316 µM
[16] = second compound 0.1 µM, first compound 1 µM
[17] = second compound 0.1 µM, first compound 3.16 µM
[18] = second compound 0.1 µM, first compound 10 µM
[19] = second compound 0.316 µM, first compound 0.0316 µM
[20] = second compound 0.316 µM, first compound 0.1 µM
[21] = second compound 0.316 µM, first compound 0.316 µM
[22] = second compound 0.316 µM, first compound 1 µM
[23] = second compound 0.316 µM, first compound 3.16 µM
[24] = second compound 0.316 µM, first compound 10 µM
[25] = second compound 1 µM, first compound 0.0316 µM
[26] = second compound 1 µM, first compound 0.1 µM
[27] = second compound 1 µM, first compound 0.316 µM
[28] = second compound 1 µM, first compound 1 µM
[29] = second compound 1 µM, first compound 3.16 µM
[30] = second compound 1 µM, first compound 10 µM
[31] = second compound 3.16 µM, first compound 0.0316 µM
[32] = second compound 3.16 µM, first compound 0.1 µM
[33] = second compound 3.16 µM, first compound 0.316 µM
[34] = second compound 3.16 µM, first compound 1 µM
[35] = second compound 10 µM, first compound 0.0316 µM
[36] = second compound 10 µM, first compound 0.1 µM
[37] = second compound 10 µM, first compound 0.316 µM
[38] = second compound 10 µM, first compound 1 µM
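Note: spheroids exposed to agents for seven days before readout.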
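Throughout, for viability, T/C: percent of vehicle DMSO control viability so 100% = untreated growth.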

SMILES: CNC(=O)c1ccc(N2C(=S)N(c3ccc(C#N)c(C(F)(F)F)c3)C(=O)C2(C)C)cc1F
viability, T/C (compound 0.1 µM): 92.5% [middle of 4 runs]
viability, T/C (compound 0.316 µM): 105% [middle of 4 runs]
viability, T/C (compound 1 µM): 96.4% [middle of 4 runs]
viability, T/C (compound 3.16 µM): 94.9% [middle of 4 runs]
viability, T/C (compound 10 µM): 94.5% [middle of 4 runs]
IC50 (curve of compound): > 10 µM

SMILES: CC(Nc1ccc2c(c1)OCCn1cc(N3C(=O)OCC3C(F)F)nc1-2)C(N)=O (stereo not drawn)
viability, T/C (compound 0.00316 µM): 93% [middle of 8 runs]
viability, T/C (compound 0.01 µM): 96.8% [middle of 8 runs]
viability, T/C (compound 0.0316 µM): 81% [middle of 8 runs]
viability, T/C (compound 0.1 µM): 65.7% [middle of 8 runs]
viability, T/C (compound 0.316 µM): 51.8% [middle of 8 runs]
viability, T/C (compound 1 µM): 47.7% [middle of 8 runs]

Second part, led by results:

IC50 [1]: > 10 µM
IC50 [2]: > 10 µM
IC50 [3]: > 10 µM
IC50 [4]: > 10 µM
IC50 [5]: < 0.0316 µM
IC50 [6]: < 0.0316 µM
SMILES: CC(Cn1ccc(-c2ccc(C#N)c(Cl)c2)n1)NC(=O)c1cc(C(C)O)[nH]n1 (stereo not drawn) + Cc1nc(NC(=O)N2CCCC2C(N)=O)sc1-c1ccnc(C(C)(C)C(F)(F)F)c1
viability, T/C [7]: 76.5%
viability, T/C [8]: 75.4%
viability, T/C [9]: 96%
viability, T/C [10]: 85.9%
viability, T/C [11]: 94.3%
viability, T/C [12]: 71.5%
viability, T/C [13]: 99.7%
viability, T/C [14]: 85.1%
viability, T/C [15]: 80.8%
viability, T/C [16]: 85%
viability, T/C [17]: 86.2%
viability, T/C [18]: 81.5%
viability, T/C [19]: 65.4%
viability, T/C [20]: 70.9%
viability, T/C [21]: 72.6%
viability, T/C [22]: 74.5%
viability, T/C [23]: 100%
viability, T/C [24]: 64.7%
viability, T/C [25]: 53.4%
viability, T/C [26]: 58.3%
viability, T/C [27]: 55.5%
viability, T/C [28]: 60.8%
viability, T/C [29]: 54.7%
viability, T/C [30]: 53%
viability, T/C [31]: 46.5%
viability, T/C [32]: 48.2%
viability, T/C [33]: 44.5%
viability, T/C [34]: 55.3%
viability, T/C (second compound 3.16 µM, first compound 3.16 µM): 40.8%
viability, T/C (second compound 3.16 µM, first compound 10 µM): 42.9%
viability, T/C [35]: 34%
viability, T/C [36]: 37.3%
viability, T/C [37]: 39.2%
viability, T/C [38]: 37.3%
viability, T/C (second compound 10 µM, first compound 3.16 µM): 34.2%
viability, T/C (second compound 10 µM, first compound 10 µM): 31.1%

IC50 (curve of first compound, second compound 0.00316 µM): > 10 µM
IC50 (curve of first compound, second compound 0.01 µM): > 10 µM
IC50 [1]: > 10 µM
IC50 [2]: > 10 µM
IC50 [3]: 4.55 µM
IC50 [4]: < 0.0316 µM
SMILES: C[C@@H](NC(=O)c1ncnc(N)c1Cl)c1ncc(C(=O)Nc2cc(C(F)(F)F)c(Cl)cn2)s1 + CC(Nc1ccc2c(c1)OCCn1cc(N3C(=O)OCC3C(F)F)nc1-2)C(N)=O
viability, T/C (second compound 0.00316 µM, first compound 0.0316 µM): 96.4%
viability, T/C (second compound 0.00316 µM, first compound 0.1 µM): 76.1%
viability, T/C (second compound 0.00316 µM, first compound 0.316 µM): 90.9%
viability, T/C (second compound 0.00316 µM, first compound 1 µM): 90.8%
viability, T/C (second compound 0.00316 µM, first compound 3.16 µM): 77.8%
viability, T/C (second compound 0.00316 µM, first compound 10 µM): 77.9%
viability, T/C (second compound 0.01 µM, first compound 0.0316 µM): 98.9%
viability, T/C (second compound 0.01 µM, first compound 0.1 µM): 91.3%
viability, T/C (second compound 0.01 µM, first compound 0.316 µM): 85.5%
viability, T/C (second compound 0.01 µM, first compound 1 µM): 100%
viability, T/C (second compound 0.01 µM, first compound 3.16 µM): 87.4%
viability, T/C (second compound 0.01 µM, first compound 10 µM): 80.2%
viability, T/C [7]: 84.5%
viability, T/C [8]: 80.5%
viability, T/C [9]: 81.5%
viability, T/C [10]: 88.4%
viability, T/C [11]: 73.8%
viability, T/C [12]: 64%
viability, T/C [13]: 59.6%
viability, T/C [14]: 66.3%
viability, T/C [15]: 61.8%
viability, T/C [16]: 77.5%
viability, T/C [17]: 60.5%
viability, T/C [18]: 58.4%
viability, T/C [19]: 62.9%
viability, T/C [20]: 50.2%
viability, T/C [21]: 53.9%
viability, T/C [22]: 60.4%
viability, T/C [23]: 55.1%
viability, T/C [24]: 42.2%
viability, T/C [25]: 42.1%
viability, T/C [26]: 44.4%
viability, T/C [27]: 46.2%
viability, T/C [28]: 38.2%
viability, T/C [29]: 43.3%
viability, T/C [30]: 32.9%

IC50 [1]: > 1 µM
IC50 [2]: > 1 µM
IC50 [3]: > 1 µM
IC50 [4]: > 1 µM
IC50 [5]: > 1 µM
IC50 [6]: > 1 µM
SMILES: CCN1CCN(Cc2ccc(Nc3ncc(F)c(-c4cc(F)c5nc(C)n(C(C)C)c5c4)n3)nc2)CC1 + CC(Nc1ncnc2nc[nH]c12)c1cc2cccc(Cl)c2c(=O)n1-c1ccccc1
viability, T/C (second compound 0.0316 µM, first compound 0.00316 µM): 98.7%
viability, T/C (second compound 0.0316 µM, first compound 0.01 µM): 94.4%
viability, T/C [7]: 96.9%
viability, T/C [8]: 99%
viability, T/C [9]: 89.8%
viability, T/C [10]: 84.6%
viability, T/C (second compound 0.1 µM, first compound 0.00316 µM): 99.2%
viability, T/C (second compound 0.1 µM, first compound 0.01 µM): 93.1%
viability, T/C [13]: 103%
viability, T/C [14]: 108%
viability, T/C [15]: 95%
viability, T/C [16]: 99.6%
viability, T/C (second compound 0.316 µM, first compound 0.00316 µM): 103%
viability, T/C (second compound 0.316 µM, first compound 0.01 µM): 94.3%
viability, T/C [19]: 95.7%
viability, T/C [20]: 96.3%
viability, T/C [21]: 96.6%
viability, T/C [22]: 96.2%
viability, T/C (second compound 1 µM, first compound 0.00316 µM): 92.8%
viability, T/C (second compound 1 µM, first compound 0.01 µM): 93.6%
viability, T/C [25]: 91.9%
viability, T/C [26]: 90.6%
viability, T/C [27]: 89.2%
viability, T/C [28]: 91.6%
viability, T/C (second compound 3.16 µM, first compound 0.00316 µM): 80%
viability, T/C (second compound 3.16 µM, first compound 0.01 µM): 69.8%
viability, T/C [31]: 75.4%
viability, T/C [32]: 79%
viability, T/C [33]: 78.9%
viability, T/C [34]: 75%
viability, T/C (second compound 10 µM, first compound 0.00316 µM): 56%
viability, T/C (second compound 10 µM, first compound 0.01 µM): 62.8%
viability, T/C [35]: 65%
viability, T/C [36]: 67.4%
viability, T/C [37]: 69.8%
viability, T/C [38]: 53.6%
